For data set [1], the system named is hypertrophic scars. Kind of data set: Rabbit ear hypertrophic scar model. It counts as in vivo, New Zealand white rabbits. The note with it: 150 μM, 100 μL injected into each lesion once a week, 4 injections, FIG. 12. The procedure: In this test example, the efficacy of the compounds of the present disclosure was tested on hypertrophic scars in a rabbit ear hypertrophic scar animal model. Briefly, 15 New Zealand white rabbits, male, 3 months old, were used. The New Zealand rabbits were anaesthetized with sodium pentobarbital and six circular full-thickness wounds with a diameter of 10 mm were made on the ventral surface of each ear by removing the epidermis, dermis and perichondrium to expose the cartilage. The rabbits were randomly divided into control, RX001 experimental and RX301 experimental groups. On postoperative day 14, after complete re-epithelialization of the wound surface, the compound (150 μM, 100 μL, dissolved in DMSO solution) or negative control DMSO 100 μL was injected into the center of each lesion from the wound edge once a week for a total of 4 injections. Improvement of scar formation by the drugs was assessed by SEI (Scar Excess Index).

Data set [2] has as its system idiopathic pulmonary fibrosis. Kind of data set: Idiopathic pulmonary fibrosis animal model (bleomycin). It counts as in vivo, SD rats. The note with it: intraperitoneal (IP) 5 mg/kg, 3 consecutive weeks, FIG. 6; for pathology scores: H&E and Masson staining; for WBC: alveolar lavage fluid; for HYP: lung tissue. The procedure: In this test example, the efficacy of the compounds of the present disclosure was tested on idiopathic pulmonary fibrosis in an idiopathic pulmonary fibrosis animal model. Briefly, anesthetized 6-week-old SD rats were fixed on a foam board with medical tape. Firstly, the skin on the surface of the trachea was cut with surgical scissors to fully expose the trachea, and a 100-microlitre micro-syringe containing a certain volume of bleomycin (BLM 5 mg/kg) solution drawn based on the body weight of the rat was inserted into the trachea through the oral cavity to administer by slow bolus injection. After administration of the BLM solution, the foam plate was immediately rotated and shaken to distribute the BLM solution as evenly as possible in the lung tissue. Then the skin on the surface of the trachea was sutured with surgical sutures and about 0.5 to 1.0 mL of penicillin solution was dripped onto the epidermis to prevent infection of the surgical wound. After the 7th day of modelling, the compound solution of the present disclosure was administered via intraperitoneal (IP) injection (5 mg/kg) according to the weight of the rat for 3 consecutive weeks. Rats were euthanized by carbon dioxide on Day 28, the lung tissues were removed, the left alveolar lavage fluid was collected for white blood cell (WBC) counting, the right lung tissue portion was used for hydroxyproline (HYP) assay, and the remaining lung tissues were stained for pathology by H&E staining and Masson staining.

Data set [3] has as its system oxygen-induced retinopathy (OIR). As to the kind of experiment: Mouse model of oxygen-induced retinopathy (OIR). It counts as in vivo. The note with it: intravitreal (IVT), 1 μL of 200 μM at P12, read at P17, FIG. 3. The procedure: The efficacy of the prodrugs RX001-RX006 as well as RX301 were investigated in a mouse model of oxygen-induced retinopathy (OIR) which to some extent indicates an in vivo model of retinopathy of prematurity (ROP), diabetic retinopathy, and wet age-related macular degeneration.
From postnatal Day 7 (P7) to Day 12 (P12), C57Bl/6 mouse pups and their CD 1 foster mothers were exposed to hyperoxia (75% 02). At P12, the animals were injected intravitreally with 1 μL of the test composition formulated in 1% DMSO, 10% Tween 80, and 20% PEG-400 (200 μM of the compound) and returned to room air until day 17 (P17). On P17, the eyeballs were enucleated, and the retinas were dissected for vascular staining. To determine the area of avascularity or angiogenesis, the retinas were flattened and stained with isolectin B4 (IB4).

The test system of data set [4] is platelets. As to the kind of experiment: Platelet toxicity test in mice (platelet count). It is filed as in vivo. The conditions noted are these: mice, 0.5 mg/kg single intraperitoneal injection, blood at 6 hours, FIG. 1. The procedure: In this test example, C57 mice were chosen to detect the effect of the target compounds on platelets.
7 to 8 weeks old […] mice were randomly divided into vehicle group and compound group. The test compound (0.5 mg/kg) or blank vehicle was administrated via single intraperitoneal injection. Blood was collected from the retroorbital venous plexus of the mice at 6 hours, and placed in a blood routine tube containing anticoagulant EDTA-K2. After shaking gently, the blood physiological indicators were measured using a hematology analyzer, with the platelet count as the target parameter for this platelet toxicity test.

Turning to `CCN1CCN(C(=O)c2nc(N3CCc4cccc(C(=O)Nc5nc6ccccc6s5)c4C3)ccc2-c2cnn(CC34CC5CC(CC(C5)C3)C4)c2C)CC1` [RX001], the scar excess index result in data set [1] is on record as “statistically significant improvement”. Also, in data set [2], the pathology scores entry is reported as “statistically significant improvements”, the WBC result is reported as “statistically significant improvements” and the HYP entry is given as “statistically significant improvements”.
Take `Cc1c(-c2ccc(N3CCc4cccc(C(=O)Nc5nc6ccccc6s5)c4C3)nc2C(=O)N2CCC(CCOP(=O)(O)O)CC2)cnn1CC12CC3CC(CC(C3)C1)C2` [RX301]: the scar excess index entry in data set [1] is “statistically significant improvement”. In addition, in data set [3], the angiogenesis entry is reported as “statistically significant improvements” and the avascular zone entry is reported as “statistically significant improvements”. For the same compound, in data set [4], the “platelet toxicity (platelet count)” value is “significantly improved”. For the same compound, in data set [2], the pathology scores result is “statistically significant improvements”, the WBC result is “statistically significant improvements” and the HYP entry is “statistically significant improvements”.

The values are drawn from patent US20260256772A1, “BENZOTHIAZOLE COMPOUND AND USE THEREOF” (NANJING REJU THERAPEUTICS, INC., priority 2022, published 2026).
